Source: ChEMBL document CHEMBL5634101, “Discovery of NLRP3 inhibitors using machine learning: Identification of a hit compound to treat NLRP3 activation-driven diseases” (Eur J Med Chem, 2023)

Molecular target: NACHT, LRR and PYD domains-containing protein 3 (Homo sapiens, UniProt Q96P20)
Experiment: Inhibition of NLRP3 inflammasome activation in PMA-differentiated human THP-1 cells assessed as reduction in IL-1beta secretion pre-stimulated with PMA for 24 hrs followed by compound addition and measured after 30 mins by ELISA
Type: cell-based

NACHT, LRR and PYD domains-containing protein 3, sequence (Q96P20 whole entry, the tested form may be a part): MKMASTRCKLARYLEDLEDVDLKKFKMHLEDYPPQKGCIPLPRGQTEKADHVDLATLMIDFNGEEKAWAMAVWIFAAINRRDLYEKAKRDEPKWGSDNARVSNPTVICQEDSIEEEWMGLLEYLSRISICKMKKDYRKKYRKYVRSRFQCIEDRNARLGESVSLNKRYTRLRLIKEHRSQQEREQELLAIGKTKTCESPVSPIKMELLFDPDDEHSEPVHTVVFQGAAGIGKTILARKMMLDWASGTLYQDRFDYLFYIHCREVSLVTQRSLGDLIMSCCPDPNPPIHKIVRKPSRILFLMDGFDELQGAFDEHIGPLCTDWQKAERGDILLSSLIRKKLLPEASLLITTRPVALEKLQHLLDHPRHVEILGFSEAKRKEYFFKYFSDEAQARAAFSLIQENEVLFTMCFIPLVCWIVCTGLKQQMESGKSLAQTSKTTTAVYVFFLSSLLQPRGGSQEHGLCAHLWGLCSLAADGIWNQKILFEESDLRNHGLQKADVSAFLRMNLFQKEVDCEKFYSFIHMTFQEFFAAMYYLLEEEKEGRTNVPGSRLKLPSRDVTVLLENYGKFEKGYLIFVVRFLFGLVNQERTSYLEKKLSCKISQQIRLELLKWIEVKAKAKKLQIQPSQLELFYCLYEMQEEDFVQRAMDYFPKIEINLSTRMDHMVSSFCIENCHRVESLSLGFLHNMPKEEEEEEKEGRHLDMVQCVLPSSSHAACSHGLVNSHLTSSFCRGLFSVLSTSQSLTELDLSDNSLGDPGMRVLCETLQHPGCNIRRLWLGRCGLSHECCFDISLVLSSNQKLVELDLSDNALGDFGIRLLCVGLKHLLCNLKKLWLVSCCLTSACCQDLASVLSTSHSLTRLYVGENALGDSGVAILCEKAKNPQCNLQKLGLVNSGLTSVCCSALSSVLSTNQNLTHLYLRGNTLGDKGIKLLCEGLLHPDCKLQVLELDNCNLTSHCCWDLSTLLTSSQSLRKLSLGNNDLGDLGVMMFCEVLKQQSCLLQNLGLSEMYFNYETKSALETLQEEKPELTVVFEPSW

O=C(O)CCCCCN1C(=O)/C(=C/c2c[nH]c3ccccc23)SC1=S
IC50: 13.9 µM
